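In this assay, cells in 96-well plates receive the compound at five concentrations for 48 hours. Endpoints are linearly interpolated between the surrounding concentrations. TGI marks complete inhibition of growth.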
Legend:
Test in all cases: NCI tumour cell line growth inhibition, 48 h
[1] = test system: NCI-H460 lung
[2] = test system: OVCAR-4 ovarian
[3] = test system: SN12C renal
[4] = test system: SR leukemia
[5] = test system: MOLT-4 leukemia
[6] = test system: M14 melanoma
[7] = test system: HCT-116 colon
[8] = test system: SK-MEL-28 melanoma
[9] = test system: CAKI-1 renal
[10] = test system: NCI-H522 lung
[11] = test system: NCI-H226 lung
[12] = test system: UACC-62 melanoma
[13] = test system: NCI-H23 lung
[14] = test system: SF-539 CNS
[15] = test system: MALME-3M melanoma
[16] = test system: HL-60(TB) leukemia
[17] = test system: SF-268 CNS
[18] = test system: SNB-75 CNS
[19] = test system: HOP-92 NSCLC
[20] = test system: IGROV1 ovarian
[21] = test system: ACHN renal
[22] = test system: DLD-1 colon
[23] = test system: M19-MEL melanoma
[24] = test system: LXFL 529 NSCLC
[25] = test system: CCRF-CEM leukemia
[26] = test system: DMS 114 small cell lung
[27] = test system: HOP-62 NSCLC
[28] = test system: SNB-78 CNS
[29] = test system: K-562 leukemia
[30] = test system: SK-MEL-2 melanoma
[31] = test system: SK-OV-3 ovarian
[32] = test system: 786-0 renal
[33] = test system: DMS 273 small cell lung
[34] = test system: UO-31 renal
[35] = test system: RPMI-8226 leukemia
[36] = test system: COLO 205 colon
[37] = test system: HCC-2998 colon
[38] = test system: RXF-631 renal
[39] = test system: SNB-19 CNS
[40] = test system: OVCAR-8 ovarian
[41] = test system: SF-295 CNS
[42] = test system: HCT-15 colon
[43] = test system: EKVX NSCLC
[44] = test system: OVCAR-5 ovarian
[45] = test system: HOP-18 NSCLC
[46] = test system: A549 NSCLC
[47] = test system: OVCAR-3 ovarian
[48] = test system: HT29 colon
[49] = test system: KM20L2 colon
[50] = test system: SK-MEL-5 melanoma
[51] = test system: RXF 393 renal
[52] = test system: SW-620 colon
[53] = test system: U251 CNS
[54] = test system: A498 renal
[55] = test system: UACC-257 melanoma
[56] = test system: TK-10 renal
[57] = test system: LOX IMVI melanoma
[58] = test system: KM12 colon
[59] = test system: XF 498 CNS

Measured: TGI

CCCN(CCC)C1CC(n2cc(C)c(=O)[nH]c2=O)OC1CO (stereo unspecified)
not listed: [39] | [40] | [41] | [42] | [43] | [44] | [45] | [46] | [47] | [48] | [49] | [50] | [51] | [52] | [53] | [54] | [55] | [56] | [57] | [58] | [59]
> 100 µM: all other assays above

O=C1C2C3SC(c4cc5ccccc5cc43)C2C(=O)N1c1ccccc1 (stereo unspecified)
94.3 µM: [51]
45.4 µM: [18]
not listed: [1] | [4] | [22] | [27] | [59]
> 100 µM: all other assays above

O=c1c(-c2cccc3ccccc23)c(-c2cccc3ccccc23)c1=O
40 µM: [50]
4.07 µM: [18]
9.27 µM: [13]
45.7 µM: [51]
49.1 µM: [27]
27.3 µM: [57]
8.51 µM: [6]
1.64 µM: [36]
> 86.2 µM: [15]
> 78.2 µM: [30]
39.4 µM: [19]
3.03 µM: [48]
> 53.7 µM: [17]
58.9 µM: [52]
6.51 µM: [11]
4.75 µM: [14]
21.1 µM: [58]
61 µM: [39]
4.87 µM: [16]
> 85 µM: [24]
12.7 µM: [32]
13.6 µM: [40]
> 39.6 µM: [55]
3.12 µM: [10]
4.95 µM: [37]
13.2 µM: [26] | [33]
> 32 µM: [4]
> 52.9 µM: [42]
12 µM: [46]
26.1 µM: [31]
18.1 µM: [54]
37.6 µM: [7]
> 84.9 µM: [44]
2.82 µM: [41]
> 39.4 µM: [43]
> 45.2 µM: [5]
1.59 µM: [49]
> 33.3 µM: [29]
99 µM: [59]
> 50 µM: [25]
4 µM: [1]
18.4 µM: [53]
11.6 µM: [47]
not listed: [2] | [38]
> 100 µM: all other assays above

CN(c1ccccc1)c1nc(=[N+](C)C)ss1
not listed: [4] | [5] | [35] | [36] | [38] | [47] | [57]
> 100 µM: all other assays above
